Data from article PMC5218480 (PLoS ONE, 2017).

Tested on: MV-4-11 cells
Assay: Gene expression microarray analysis (Affymetrix PrimeView) and GSEA
Type: cell-based, human
Parameters: RFU PODN (11730768_x_at) / Fold change /veh PODN (11730768_x_at) / RFU LINC00158 (11744669_a_at) / Fold change /veh LINC00158 (11744669_a_at) / RFU DUSP10 (11751237_a_at) / Fold change /veh DUSP10 (11751237_a_at) / RFU ID3 (11757404_x_at) / Fold change /veh ID3 (11757404_x_at) / RFU PLEKHG5 (11737974_s_at) / Fold change /veh PLEKHG5 (11737974_s_at) / RFU LRRC4B (11730491_at) / Fold change /veh LRRC4B (11730491_at) / RFU GIMAP4 (11747438_a_at) / Fold change /veh GIMAP4 (11747438_a_at) / RFU KRT8 (11758183_x_at) / Fold change /veh KRT8 (11758183_x_at) / RFU CNN1 (11734310_a_at) / Fold change /veh CNN1 (11734310_a_at) / RFU VPS37D (11726825_at) / Fold change /veh VPS37D (11726825_at) / RFU C10orf10 (11716522_x_at) / Fold change /veh C10orf10 (11716522_x_at) / RFU KIR2DL2 /// KIR2DL4 /// KIR2DL5A /// KIR2DL5B /// KIR2DS1 /// KIR2DS2 /// KIR2DS3 /// KIR2DS4 /// KIR3DL3 /// KIR3DL3 /// KIR3DS1 (11738374_at) / Fold change /veh KIR2DL2 /// KIR2DL4 /// KIR2DL5A /// KIR2DL5B /// KIR2DS1 /// KIR2DS2 /// KIR2DS3 /// KIR2DS4 /// KIR3DL3 /// KIR3DL3 /// KIR3DS1 (11738374_at) / RFU C1QL1 (11718748_at) / Fold change /veh C1QL1 (11718748_at) / RFU TMPRSS4 (11747572_a_at) / Fold change /veh TMPRSS4 (11747572_a_at) / RFU HAMP (11756126_x_at) / Fold change /veh HAMP (11756126_x_at) / RFU RNFT2 (11725882_a_at) / Fold change /veh RNFT2 (11725882_a_at) / RFU NR4A2 (11747474_a_at) / Fold change /veh NR4A2 (11747474_a_at) / RFU ABCC12 (11746883_a_at) / Fold change /veh ABCC12 (11746883_a_at) / RFU TMEM136 (11760407_x_at) / Fold change /veh TMEM136 (11760407_x_at) / RFU CLDN22 /// WWC2 (11732394_at) / Fold change /veh CLDN22 /// WWC2 (11732394_at) / RFU HLA-DPB1 (11760878_x_at) / Fold change /veh HLA-DPB1 (11760878_x_at) / RFU SPINT1 (11716480_a_at) / Fold change /veh SPINT1 (11716480_a_at) / RFU GAP43 (11754022_s_at) / Fold change /veh GAP43 (11754022_s_at) / RFU A4GNT (11735810_at) / Fold change /veh A4GNT (11735810_at) / RFU PRB3 (11715151_x_at) / Fold change /veh PRB3 (11715151_x_at) / RFU TUBB4B (11761932_at) / Fold change /veh TUBB4B (11761932_at) / RFU CAPN14 (11732068_a_at) / Fold change /veh CAPN14 (11732068_a_at) / RFU TMCC2 (11721928_a_at) / Fold change /veh TMCC2 (11721928_a_at) / RFU IRGQ (11745062_a_at) / Fold change /veh IRGQ (11745062_a_at) / RFU FAM174B (11720279_a_at) / Fold change /veh FAM174B (11720279_a_at) / RFU TMPRSS4 (11748680_a_at) / Fold change /veh TMPRSS4 (11748680_a_at) / RFU FAM212B (11763350_a_at) / Fold change /veh FAM212B (11763350_a_at) / RFU PLEKHG5 (11743358_a_at) / Fold change /veh PLEKHG5 (11743358_a_at) / RFU ZSCAN30 (11745921_a_at) / Fold change /veh ZSCAN30 (11745921_a_at) / RFU CMKLR1 (11741424_a_at) / Fold change /veh CMKLR1 (11741424_a_at) / RFU LOC101060620 /// MAPK8IP1 (11723275_at) / Fold change /veh LOC101060620 /// MAPK8IP1 (11723275_at) / RFU SPTSSB (11747773_x_at) / Fold change /veh SPTSSB (11747773_x_at) / RFU PRSS12 (11739890_at) / Fold change /veh PRSS12 (11739890_at) / RFU BIN1 (11741810_x_at) / Fold change /veh BIN1 (11741810_x_at) / RFU WNT11 (11732464_a_at) / Fold change /veh WNT11 (11732464_a_at) / RFU C10orf10 (11716521_a_at) / Fold change /veh C10orf10 (11716521_a_at) / RFU C5orf56 (11738089_at) / Fold change /veh C5orf56 (11738089_at) / RFU CYB561 (11721691_x_at) / Fold change /veh CYB561 (11721691_x_at) / RFU ANKRD19P (11752326_a_at) / Fold change /veh ANKRD19P (11752326_a_at) / RFU OR2T12 /// OR2T33 /// OR2T8 (11738714_s_at) / Fold change /veh OR2T12 /// OR2T33 /// OR2T8 (11738714_s_at) / RFU VCAN (11748164_a_at) / Fold change /veh VCAN (11748164_a_at) / RFU JSRP1 (11732532_at) / Fold change /veh JSRP1 (11732532_at) / RFU KRTAP10-11 (11738290_x_at) / Fold change /veh KRTAP10-11 (11738290_x_at) / RFU MYO3A (11730013_a_at) / Fold change /veh MYO3A (11730013_a_at) / RFU EBF3 (11725865_a_at) / Fold change /veh EBF3 (11725865_a_at) / RFU CAMK2N1 (11719241_x_at) / Fold change /veh CAMK2N1 (11719241_x_at) / RFU C5orf56 (11738088_a_at) / Fold change /veh C5orf56 (11738088_a_at) / RFU OLFML3 (11715873_a_at) / Fold change /veh OLFML3 (11715873_a_at) / RFU LOC100653217 /// NTM (11731650_a_at) / Fold change /veh LOC100653217 /// NTM (11731650_a_at) / RFU MAPK11 (11762145_a_at) / Fold change /veh MAPK11 (11762145_a_at) / RFU FIZ1 (11724087_x_at) / Fold change /veh FIZ1 (11724087_x_at) / RFU OASL (11726364_x_at) / Fold change /veh OASL (11726364_x_at) / RFU SOX15 (11748057_x_at) / Fold change /veh SOX15 (11748057_x_at) / RFU CD79A (11719716_a_at) / Fold change /veh CD79A (11719716_a_at) / RFU HIST1H1D (11736915_at) / Fold change /veh HIST1H1D (11736915_at) / RFU CASKIN2 (11723855_a_at) / Fold change /veh CASKIN2 (11723855_a_at) / RFU LOC730098 (11760151_x_at) / Fold change /veh LOC730098 (11760151_x_at) / RFU OR4N2 (11742367_at) / Fold change /veh OR4N2 (11742367_at) / RFU PRRT2 (11749266_a_at) / Fold change /veh PRRT2 (11749266_a_at) / RFU SNX32 (11753110_a_at) / Fold change /veh SNX32 (11753110_a_at) / RFU CDHR5 (11726645_a_at) / Fold change /veh CDHR5 (11726645_a_at) / RFU RCAN1 (11760418_a_at) / Fold change /veh RCAN1 (11760418_a_at) / RFU FAM167A (11723789_a_at) / Fold change /veh FAM167A (11723789_a_at) / RFU FAM26E (11764081_at) / Fold change /veh FAM26E (11764081_at) / RFU ISYNA1 (11749810_s_at) / Fold change /veh ISYNA1 (11749810_s_at) / RFU ACY1 (11761880_at) / Fold change /veh ACY1 (11761880_at) / RFU 11764098_at / Fold change /veh 11764098_at / RFU SAMD14 (11745864_x_at) / Fold change /veh SAMD14 (11745864_x_at) / RFU NPB (11741838_a_at) / Fold change /veh NPB (11741838_a_at) / RFU TMPRSS6 (11731388_a_at) / Fold change /veh TMPRSS6 (11731388_a_at) / RFU KRTAP10-2 (11738614_at) / Fold change /veh KRTAP10-2 (11738614_at) / RFU ARHGAP8 /// PRR5-ARHGAP8 (11727945_x_at) / Fold change /veh ARHGAP8 /// PRR5-ARHGAP8 (11727945_x_at) / RFU KRTAP5-7 /// NADSYN1 (11734609_at) / Fold change /veh KRTAP5-7 /// NADSYN1 (11734609_at) / RFU RASL12 (11751679_a_at) / Fold change /veh RASL12 (11751679_a_at) / RFU CDKN2B (11736163_a_at) / Fold change /veh CDKN2B (11736163_a_at) / RFU PRF1 (11729649_at) / Fold change /veh PRF1 (11729649_at) / RFU, ZNF638 /// ZNF638-IT1 / Fold change vs veh, ZNF638 /// ZNF638-IT1 / RFU, PANK3 / Fold change vs veh, PANK3 / RFU, SH3YL1 / Fold change vs veh, SH3YL1 / RFU, ZEB2 / Fold change vs veh, ZEB2 / RFU, NRIP1 / Fold change vs veh, NRIP1 / RFU, PTTG1IP / Fold change vs veh, PTTG1IP / RFU, CAPN2 / Fold change vs veh, CAPN2 / RFU, MED14 / Fold change vs veh, MED14 / RFU, SNORA58 / Fold change vs veh, SNORA58 / RFU, C1orf63 / Fold change vs veh, C1orf63 / RFU, LRRFIP1 / Fold change vs veh, LRRFIP1 / RFU, NDUFAF7 / Fold change vs veh, NDUFAF7 / RFU, SLC12A2 / Fold change vs veh, SLC12A2 / RFU, IBTK / Fold change vs veh, IBTK / RFU, ESF1 / Fold change vs veh, ESF1 / Fold change vs veh, TMEM50B / RFU, TAOK1 / Fold change vs veh, TAOK1 / RFU, ACBD3 / Fold change vs veh, ACBD3 / RFU, TMA16 / Fold change vs veh, TMA16 / RFU, RWDD3 / Fold change vs veh, RWDD3 / RFU, BCAT1 / Fold change vs veh, BCAT1 / RFU, EDEM3 / Fold change vs veh, EDEM3 / RFU, TMEM33 / Fold change vs veh, TMEM33 / RFU, WDR75 / Fold change vs veh, WDR75 / RFU, AHCTF1 / Fold change vs veh, AHCTF1 / RFU, TFRC / Fold change vs veh, TFRC / RFU, ZDHHC17 / Fold change vs veh, ZDHHC17 / RFU, NOM1 / Fold change vs veh, NOM1 / RFU, ARL8B / Fold change vs veh, ARL8B / RFU, ZBTB11 / Fold change vs veh, ZBTB11 / RFU, TAMM41 / Fold change vs veh, TAMM41 / RFU, KIAA1704 /// LOC100996395 / Fold change vs veh, KIAA1704 /// LOC100996395 / RFU, ING1 / Fold change vs veh, ING1 / RFU, TRMT61B / Fold change vs veh, TRMT61B / RFU, FUBP3 / Fold change vs veh, FUBP3 / RFU, TP53 / Fold change vs veh, TP53 / RFU, TNKS2 / Fold change vs veh, TNKS2 / RFU, ZFP14 / Fold change vs veh, ZFP14 / RFU, ACTR2 / Fold change vs veh, ACTR2 / RFU, PPP3R1 / Fold change vs veh, PPP3R1 / RFU, PIK3R1 / Fold change vs veh, PIK3R1 / RFU, HNRNPA1 / Fold change vs veh, HNRNPA1 / RFU, RNF170 / Fold change vs veh, RNF170 / RFU, ZNF28 / Fold change vs veh, ZNF28 / RFU, RNGTT / Fold change vs veh, RNGTT / RFU, OGT / Fold change vs veh, OGT / RFU, BRD1 / Fold change vs veh, BRD1 / RFU, MARS / Fold change vs veh, MARS / RFU, ZNF655 / Fold change vs veh, ZNF655 / RFU, FAHD1 / Fold change vs veh, FAHD1 / RFU, BDP1 / Fold change vs veh, BDP1 / RFU, LRRCC1 / Fold change vs veh, LRRCC1 / RFU, ARID1A / Fold change vs veh, ARID1A / RFU, ZNF146 / Fold change vs veh, ZNF146 / RFU, ZNF330 / Fold change vs veh, ZNF330 / RFU, GPN3 / Fold change vs veh, GPN3 / RFU, C9orf123 / Fold change vs veh, C9orf123 / RFU, N4BP2L2 / Fold change vs veh, N4BP2L2 / RFU, ARFIP1 / Fold change vs veh, ARFIP1 / RFU, FAM179B / Fold change vs veh, FAM179B / RFU, BCL10 / Fold change vs veh, BCL10 / RFU, UHRF1BP1L / Fold change vs veh, UHRF1BP1L / RFU, BET1 / Fold change vs veh, BET1 / RFU, CNOT2 / Fold change vs veh, CNOT2 / RFU, ZNF268 / Fold change vs veh, ZNF268 / Fold change vs veh, ZNF507 / RFU, DGCR2 / Fold change vs veh, DGCR2 / RFU, WDSUB1 / Fold change vs veh, WDSUB1 / Fold change vs veh, HSP90B1 /// MIR3652 / RFU, ADSS / Fold change vs veh, ADSS / RFU, GK / Fold change vs veh, GK / RFU, ZNF148 / Fold change vs veh, ZNF148 / RFU, TAF9 / Fold change vs veh, TAF9 / RFU, SLC1A5 / Fold change vs veh, SLC1A5 / RFU, SLMO2 / Fold change vs veh, SLMO2 / RFU, ABCC4 / Fold change vs veh, ABCC4 / RFU, LOC101060439 /// RAP1B / Fold change vs veh, LOC101060439 /// RAP1B / RFU, RFX7 / Fold change vs veh, RFX7 / RFU, GTPBP10 / Fold change vs veh, GTPBP10 / RFU, CNEP1R1 / Fold change vs veh, CNEP1R1 / RFU, BIVM-ERCC5 /// ERCC5 / Fold change vs veh, BIVM-ERCC5 /// ERCC5 / RFU, ILF3 / Fold change vs veh, ILF3 / RFU 11762660_at / Fold change /veh 11762660_at / RFU VCAN (11757783_s_at) / Fold change /veh VCAN (11757783_s_at) / RFU DDX43 (11728927_at) / Fold change /veh DDX43 (11728927_at) / RFU KRT8 (11758188_x_at) / Fold change /veh KRT8 (11758188_x_at) / RFU NKD1 (11759106_at) / Fold change /veh NKD1 (11759106_at) / RFU SRD5A1 (11742802_a_at) / Fold change /veh SRD5A1 (11742802_a_at) / RFU TPSAB1 /// TPSB2 (11721975_s_at) / Fold change /veh TPSAB1 /// TPSB2 (11721975_s_at) / RFU GSTM3 (11746129_a_at) / Fold change /veh GSTM3 (11746129_a_at) / RFU IL23R (11737362_x_at) / Fold change /veh IL23R (11737362_x_at) / RFU TMEM51 (11727254_a_at) / Fold change /veh TMEM51 (11727254_a_at) / RFU PIWIL2 (11732686_x_at) / Fold change /veh PIWIL2 (11732686_x_at) / RFU ORM1 (11744905_x_at) / Fold change /veh ORM1 (11744905_x_at) / RFU CCDC152 (11743942_at) / Fold change /veh CCDC152 (11743942_at) / RFU ECM1 (11717891_a_at) / Fold change /veh ECM1 (11717891_a_at) / RFU IL23R (11748794_a_at) / Fold change /veh IL23R (11748794_a_at) / RFU TNFAIP8L3 (11732012_x_at) / Fold change /veh TNFAIP8L3 (11732012_x_at) / RFU MBOAT4 (11741988_at) / Fold change /veh MBOAT4 (11741988_at) / RFU 11764193_at / Fold change /veh 11764193_at / RFU TMEM53 (11763286_at) / Fold change /veh TMEM53 (11763286_at) / RFU MAGEB2 (11727129_at) / Fold change /veh MAGEB2 (11727129_at) / RFU TMEM200A (11744735_a_at) / Fold change /veh TMEM200A (11744735_a_at) / RFU CCDC152 (11751479_a_at) / Fold change /veh CCDC152 (11751479_a_at) / RFU FAM211A (11726209_a_at) / Fold change /veh FAM211A (11726209_a_at) / RFU RGS16 (11746705_a_at) / Fold change /veh RGS16 (11746705_a_at) / RFU VCAN (11755009_s_at) / Fold change /veh VCAN (11755009_s_at) / RFU RHOB (11743442_s_at) / Fold change /veh RHOB (11743442_s_at) / RFU RGS16 (11720943_a_at) / Fold change /veh RGS16 (11720943_a_at) / RFU RGS16 (11720944_at) / Fold change /veh RGS16 (11720944_at) / RFU, VPS4B / Fold change vs veh, VPS4B / RFU, CREB1 / Fold change vs veh, CREB1 / RFU, DNAJC13 / Fold change vs veh, DNAJC13 / RFU, GNAQ / Fold change vs veh, GNAQ / RFU, CDK5R1 / Fold change vs veh, CDK5R1 / RFU, ZRANB3 / Fold change vs veh, ZRANB3 / RFU, CUL4A / Fold change vs veh, CUL4A / RFU, CCNY / Fold change vs veh, CCNY / RFU, UFL1 / Fold change vs veh, UFL1 / RFU, COG3 / Fold change vs veh, COG3 / RFU, DIAPH2 / Fold change vs veh, DIAPH2 / RFU, SKA2 / Fold change vs veh, SKA2 / RFU, AFF3 / Fold change vs veh, AFF3 / RFU, LMF1 / Fold change vs veh, LMF1 / RFU, IPO11 / Fold change vs veh, IPO11 / RFU, DFFB / Fold change vs veh, DFFB / RFU, FOXP1 / Fold change vs veh, FOXP1 / RFU, CARD8 / Fold change vs veh, CARD8 / RFU, STRN3 / Fold change vs veh, STRN3 / RFU, ADK / Fold change vs veh, ADK / RFU, RASSF2 / Fold change vs veh, RASSF2 / RFU, WIPF1 / Fold change vs veh, WIPF1 / RFU, LARP1B / Fold change vs veh, LARP1B / RFU, RASA1 / Fold change vs veh, RASA1 / RFU, RB1 / Fold change vs veh, RB1 / RFU, PPFIA1 / Fold change vs veh, PPFIA1 / RFU, MAT2A / Fold change vs veh, MAT2A / RFU, CCT5 / Fold change vs veh, CCT5 / RFU, WDR92 / Fold change vs veh, WDR92 / RFU, CUX1 / Fold change vs veh, CUX1 / RFU, TTC7A / Fold change vs veh, TTC7A / RFU, TMEM135 / Fold change vs veh, TMEM135 / RFU, DEPTOR / Fold change vs veh, DEPTOR / RFU, CPM / Fold change vs veh, CPM / RFU, DNAJB6 / Fold change vs veh, DNAJB6 / RFU, CACNA2D3 / Fold change vs veh, CACNA2D3 / RFU, DTX4 / Fold change vs veh, DTX4 / RFU, TFCP2 / Fold change vs veh, TFCP2 / RFU, GMCL1 /// GMCL1P1 / Fold change vs veh, GMCL1 /// GMCL1P1 / RFU, AEBP2 / Fold change vs veh, AEBP2 / RFU, SNHG1 /// SNORD22 /// SNORD25 /// SNORD26 /// SNORD27 /// SNORD28 /// SNORD29 /// SNORD31 / Fold change vs veh, SNHG1 /// SNORD22 /// SNORD25 /// SNORD26 /// SNORD27 /// SNORD28 /// SNORD29 /// SNORD31 / Fold change (Aza/veh), C12orf56 (ProbeSet 11735607_a_at) / Fold change (ACY-1035/veh), C12orf56 (ProbeSet 11735607_a_at) / Fold change (Aza/veh), FGFR1OP (ProbeSet 11751329_s_at) / Fold change (ACY-1035/veh), FGFR1OP (ProbeSet 11751329_s_at) / Fold change (Aza/veh), VPS36 (ProbeSet 11739960_a_at) / Fold change (ACY-1035/veh), VPS36 (ProbeSet 11739960_a_at) / RFU SYPL1 (11715823_x_at) / Fold change /veh SYPL1 (11715823_x_at) / RFU IGFBP7 (11715501_s_at) / Fold change /veh IGFBP7 (11715501_s_at) / RFU REEP3 (11722064_at) / Fold change /veh REEP3 (11722064_at) / RFU IGLL1 (11728026_x_at) / Fold change /veh IGLL1 (11728026_x_at): dose or concentration left out as unconfirmed
Conditions: MV-4-11 cells, 48 hours

SMILES: Nc1ncn([C@@H]2O[C@H](CO)[C@@H](O)[C@H]2O)c(=O)n1 [azacitidine]
- RFU SNX32 (11753110_a_at): 6.16 RFU
